# Article PMC4406453, “A highly conserved, inhibitable astacin metalloprotease from Teladorsagia circumcincta is required for cuticle formation and nematode development^” (International Journal for Parasitology, 2015)
# Molecular target: T1, recombinant T. circumcincta DPY-31 (Tc rDPY-31) (Teladorsagia circumcincta, UniProt A0A0C5PRQ1)
# T1 construct: catalytic astacin domain only (684 bp codon-optimised synthetic gene), His-tagged, pET-28a(+) NdeI/XhoI, E. coli BL21 (DE3), Ni-NTA, 23 kDa; full-length precursor 614 residues
# T1 sequence (A0A0C5PRQ1 151-378 limits assumed): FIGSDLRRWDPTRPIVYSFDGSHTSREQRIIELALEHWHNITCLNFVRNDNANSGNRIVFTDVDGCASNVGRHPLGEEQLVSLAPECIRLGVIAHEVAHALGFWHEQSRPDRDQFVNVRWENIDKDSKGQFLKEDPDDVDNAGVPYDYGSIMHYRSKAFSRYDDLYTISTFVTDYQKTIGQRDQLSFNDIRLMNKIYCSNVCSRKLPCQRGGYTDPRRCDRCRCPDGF
# Assay: chromogenic protease assay, Suc-Ala-Ala-Ala-pNA, […] nm
# Assay type: biochemical
# Conditions: read-out: Effective concentration against T. circumcincta rDPY-31 ^d
smiles,measurement,value
CCCCC[C@H](CC(=O)NO)C(=O)N[C@H](C(=O)N1CCC[C@H]1CO)C(C)C [Actinonin],IC50,50 µM
